Test results from PubChem BioAssay AID651773 (Broad Institute, 2012).
“And” between values parts separate entries of the source, which are not always exact repeats. Equal values may be shown once. Results filed as inconclusive are left out.

Tested on: SK-MEL-5 MITF mRNA qPCR, delta-delta-Ct, overnight
Experiment: inhibitors of MITF mRNA expression, dose response, cell-based, RT-qPCR, SK-MEL-5, dry powder (AID 651773)

Structure (SMILES): CC(C)N1CCN(C2=C(Nc3ccc(F)cc3)C(=O)c3ccccc3C2=O)CC1
- AC40: 5510 nM

Structure (SMILES): COC1=C(NS(=O)(=O)c2ccc(Br)cc2)C(=O)c2ccccc2C1=O
- AC40: 6510 nM

Structure (SMILES): CN1CCN(C2=C(Nc3ccc(F)cc3F)C(=O)c3ccccc3C2=O)CC1
- AC40: 1820 nM

Structure (SMILES): O=C1C(Nc2ccc(Br)cc2)=C(N2CCCCC2)C(=O)c2ccccc21
- AC40: 9490 nM

Structure (SMILES): NC1=CC(=O)c2ccccc2C1=O
- AC40: 372 nM

Structure (SMILES): O=C1C(Nc2ccc(F)cc2)=C(N2CCCCC2)C(=O)c2ccccc21
- AC40: 6700 nM

Structure (SMILES): O=C1C(NS(=O)(=O)c2cccs2)=C(c2ccccc2)C(=O)c2ccccc21
- AC40: 4940 nM

Structure (SMILES): COC1=C(Nc2ccccc2)C(=O)c2ccccc2C1=O
- AC40: 386 nM

Structure (SMILES): O=C1C=C(NS(=O)(=O)c2ccccc2)C(=O)c2ccccc21
- AC40: 196 nM

Structure (SMILES): NC1=C(NC(=O)c2ccccc2)C(=O)c2ccccc2C1=O
- AC40: 357 nM

Structure (SMILES): NS(=O)(=O)c1ccc(NC2=CC(=O)c3ccccc3C2=O)cc1
- AC40: 115 nM

Structure (SMILES): CN1CCN(C2=C(NS(=O)(=O)c3ccc(Br)s3)C(=O)c3ccccc3C2=O)CC1
- AC40: 1330 nM

Structure (SMILES): O=C1C(Nc2ccc(Cl)cc2)=C(N2CCCC2)C(=O)c2ccccc21
- AC40: 9480 nM

Structure (SMILES): O=C1C=C(Nc2ccccc2)C(=O)c2ccccc21
- AC40: 175 nM and 189 nM

Structure (SMILES): CCN1CCN(C2=C(Nc3ccc(F)cc3F)C(=O)c3ccccc3C2=O)CC1
- AC40: 2280 nM

Structure (SMILES): NC1=C(NS(=O)(=O)c2cccs2)C(=O)c2ccccc2C1=O
- AC40: 1550 nM

Structure (SMILES): O=C1C=C(NS(=O)(=O)c2cccs2)C(=O)c2ccccc21
- AC40: 542 nM

Structure (SMILES): O=C1C(Nc2cccc(Cl)c2)=C(N2CCCC2)C(=O)c2ccccc21
- AC40: 10200 nM

Structure (SMILES): COC1=C(NS(=O)(=O)c2ccccc2)C(=O)c2ccccc2C1=O
- AC40: 1840 nM

Structure (SMILES): C=CCNC1=C(Cl)C(=O)c2ccccc2C1=O
- AC40: 276 nM

Structure (SMILES): O=C1C=C(Nc2ccc([N+](=O)[O-])c(C(F)(F)F)c2)C(=O)c2ccccc21
- AC40: 86.8 nM

Structure (SMILES): CC(C)N1CCN(C2=C(Nc3ccc(F)cc3F)C(=O)c3ccccc3C2=O)CC1
- AC40: 1590 nM

Structure (SMILES): NC1=C(NS(=O)(=O)c2ccc(Br)cc2)C(=O)c2ccccc2C1=O
- AC40: 4920 nM

Structure (SMILES): CCN1CCN(C2=C(NS(=O)(=O)c3ccc(Br)cc3)C(=O)c3ccccc3C2=O)CC1
- AC40: 3650 nM

Structure (SMILES): NC1=C(NS(=O)(=O)c2ccccc2)C(=O)c2ccccc2C1=O
- AC40: 2760 nM

Structure (SMILES): O=C1C=C(NS(=O)(=O)c2ccc(Br)cc2)C(=O)c2ccccc21
- AC40: 631 nM

Structure (SMILES): CCN1CCN(C2=C(NC(=O)c3ccccc3)C(=O)c3ccccc3C2=O)CC1
- AC40: 1280 nM

Structure (SMILES): Cc1ccc(NC2=CC(=O)c3ccccc3C2=O)cc1
- AC40: 1650 nM

Structure (SMILES): O=C1C(Nc2ccccc2)=C(c2ccccc2)C(=O)c2ccccc21
- AC40: 5040 nM

Structure (SMILES): COC1=C(NS(=O)(=O)c2cccs2)C(=O)c2ccccc2C1=O
- AC40: 7800 nM

Structure (SMILES): O=C(NC1=C(Cl)C(=O)c2ccccc2C1=O)c1ccccc1
- AC40: 179 nM
